Assay type in all cases: cell-based
The test system of one experiment is PC-3. The experiment can be described thus: 3D Cell Proliferation Screen, PC-3. Conditions: Homo sapiens, 120 h, PC-3 prostate spheroids, 5 days, positive control. The procedure: (§1) Experimental Methods: 3D Cell Proliferation Assay
(§2) Cells were seeded at 1000 cells/well in media in 384-well Corning® Spheroid microplates. The microplates were incubated at 37 C in 5% CO2 incubator to allow for spheroid formation.
(§3) Aliquots of each sample were vortexed and centrifuged at 3,000 rpm (800 g) for 5 minutes at room temperature. Supernatants (500-fold stocks) were stored under sterile conditions at 4 C.
(§4) On the day of the assay, a 9-point dose-response of each 500-fold stock was prepared and added to the spheroid plates to provide final assay concentrations ranging from 1e-04 to 1-fold, in 0.2% DMSO. Final assay conditions for each sample are shown on Table 1.
(§5) Assay plates were incubated at 37 C in an atmosphere containing 5% CO2 for 5 days. […] Cell viability was determined at 5 days post-compound addition. Briefly, 3D-CellTiter Glow™ reagent (Promega) was added to assay plates per the manufacturer's recommendations. Plates were shaken until spheroids were lysed and luminescence was read at room temperature.
(§6) Cell proliferation end point was analyzed as Percent of Control (POC) using the following formula: […]
(§7) EC50, IC50 and GI50 values were calculated using nonlinear regression to fit data to a sigmoidal 4-point, 4-parameter log-logistic dose response model: […]

The next experiment deals with BT-474. Kind of experiment: 3D Cell Proliferation Screen, BT-474. Conditions: Homo sapiens, 120 h; BT-474 breast spheroids, 5 days; relative to T0; positive control. The procedure: as §1, §2, §3, §4, §5, §6, §7
The next experiment deals with A-549. The experiment can be described thus: 3D Cell Proliferation Screen, A-549. Conditions: Homo sapiens, A549, 120 h, A-549 lung spheroids, 5 days, positive control. The procedure:
as §1, §2, §3, §4, §5, §6, §7

The next experiment has as its system NCI-H460. Kind of experiment: 3D Cell Proliferation Screen, NCI-H460. Conditions: Homo sapiens, 120 h; NCI-H460 lung spheroids, 5 days; relative to T0; positive control. The procedure:
as §1, §2, §3, §4, §5, §6, §7

The test system of the next experiment is HT-29. The experiment can be described thus: 3D Cell Proliferation Screen, HT-29. Conditions: Homo sapiens, 120 h, HT-29 colon spheroids, 5 days, positive control. The procedure: as §1, §2, §3, §4, §5, §6
(§8) A relative cell count EC50 is the concentration of the test compound that produces a response half-way between the maximum and baseline. Relative cell count IC50 is the concentration of the test compound that produces 50% of the cell proliferation inhibitory response or 50% cytotoxicity level. GI50 is the concentration of the test compound that produces 50% reduction in proliferation of cancer cells relative to T0. The output of each biomarker is fold-increase over vehicle control background normalized to the relative cell count in each well.
(§9) EC50, IC50 and GI50 values were calculated using nonlinear regression to fit data to a sigmoidal 4-point, 4-parameter log-logistic dose response model:
(§10) Curve-fitting and EC50 calculations were performed using the R statistical software package with R's drc library.

A further experiment has as its system T24. The experiment can be described thus: 3D Cell Proliferation Screen, T24. Conditions: Homo sapiens, T-24, 120 h, T24 bladder spheroids, 5 days, positive control. The procedure:
as §1, §2, §3, §4, §5, §6, §8, §9, §10

A further experiment deals with T-47D. The experiment can be described thus: 3D Cell Proliferation Screen, T-47D. Conditions: Homo sapiens, T47D, 120 h, T-47D breast spheroids, 5 days, positive control. The procedure: as §1, §2, §3, §4, §5, §6, §8, §9, §10
The subject of a further experiment is 22Rv-1. The experiment can be described thus: 3D Cell Proliferation Screen, 22Rv-1. Conditions: Homo sapiens, 22Rv1, 120 h; 22Rv-1 prostate spheroids, 5 days; relative to T0; positive control. The procedure: as §1, §2, §3, §4, §5, §6, §7

The term IC50 denotes the concentration that inhibits the measured activity by half. A high value points to lower potency. Usually GI50 stands for the concentration giving 50% growth inhibition. High values mean less potent growth inhibition, low ones more potent growth inhibition. One may read the EC50 as the concentration that produces a half-maximal response. On to `CN[C@@H]1C[C@H]2O[C@@](C)([C@@H]1OC)n1c3ccccc3c3c4c(c5c6ccccc6n2c5c31)C(=O)NC4` [Staurosporine], for which the IC50 in the experiment with PC-3 came out at 4 nM; in the experiment on HT-29, 9 nM; in the experiment on T24, 13 nM; in the experiment with T-47D, 101 nM. For the same molecule, the GI50 is 1 nM in the experiment on PC-3 (relative to T0); 3 nM in the experiment on BT-474; 11 nM in the experiment with A-549 (relative to T0); 17 nM with NCI-H460; 7 nM with HT-29 (relative to T0); 1 nM in the experiment on T24 (relative to T0). Also, the GI50 with T-47D (relative to T0) came out at 38 nM; with 22Rv-1, 13 nM. Besides, the EC50 in the experiment on A-549 amounted to 17 nM; with HT-29 it was 9 nM; in the experiment on T24, 13 nM; in the experiment with T-47D, 101 nM.

Values taken from patent US20240091292A1, “METHODS FOR TREATMENT OF HUMAN CANCERS USING CANNABIS COMPOSITIONS” (Apollon Formularies PLC, priority 2021, published 2024).
